Where two headings read alike, the source gives them in different places.
Experiments:
[1] = MR relaxivity, phantom at 9.4 T
Protocol: The hydrodynamic size of INV-001 was measured to be 3.6 nm (FIG. 3b). Subsequently, the T1 and T2 relaxation rates (1/T1 and 1/T2) of INV-001 were measured at 9.4 T (FIG. 3c). The longitudinal and transverse relaxivities (r1 and r2) were calculated at various INV-001 concentrations (0.125, 0.25, 0.5, and 1.0 mM). The r1 was determined to be 2.61 mM^-1·s^-1 and the r2 was 4.33 mM^-1·s^-1 (FIGS. 3d and 3e).

[2] = MR relaxivity, phantom at 3 T; settings: 3 T MRI
From the text: The r2/r1 ratio serves as a metric for determining whether the nanoparticles are more appropriate for use as T1 MRI contrast agents or T2 MRI contrast agents.
The hydrodynamic diameter of the synthesized INV-001 was 3.9 nm with a surface charge of -3.3 mV. […] The particle size of this contrast agent exceeds the maximum size (2 nm) permissible for intravasation, thereby preventing its entry into blood vessels. Thus, it is theoretically suitable for use as a lymphatic-specific contrast agent that infiltrates the lymphatic vessels without venous contamination when administered intradermally or subcutaneously.
The measured r1 and r2 relaxivity values of NEMO-103 were 2.0 mM^-1s^-1 and 2.3 mM^-1s^-1, respectively (FIGS. 29d and 29e). The r2/r1 ratio, which is an important parameter for T1 MRI contrast agents, was calculated to be 1.15. […] For comparison, the measured r1 and r2 values of Dotarem® were 4.7 mM^-1s^-1 and 5.2 mM^-1s^-1, respectively, resulting in an r2/r1 ratio of 1.11.
To evaluate the T1 MRI performance of the materials from Example 7-7, both the spin-spin relaxivity coefficient (r2) and spin-lattice relaxivity coefficient (r1) were measured, and the r2/r1 ratio was calculated. The r2/r1 ratio is a critical indicator in determining whether a contrast agent is suitable for T1 or T2 MRI.

[3] = tested on: popliteal lymph node and surrounding lymphatic vessels; assay: Magnetic resonance lymphangiography (MRL) in rats, Example 1; format: in vivo, male Sprague-Dawley (SD) rats
Protocol: Specifically, all animals used in Example 1 were male Sprague-Dawley (SD) rats weighing 250-300 g. The prepared contrast agent was administered intradermally/subcutaneously into the fourth digits of both hind limbs using a 30-gauge needle. MRL was performed every 16 minutes using a 3D time-of-flight (TOF) sequence with a saturation band on a 9.4-T preclinical MRI scanner.
Gd-DOTA (Gd-DOTA, DOTAREM, Guerbet, Roissy CdG Cedex, France) was used as a Gd-based contrast agent. The Gd-DOTA stock solution, provided at a concentration of 500 mM, was diluted with normal saline before its administration.
The signal-to-noise ratio (SNR) and contrast-to-noise ratio (CNR) of the popliteal lymph node and surrounding lymphatic vessels were analyzed at a dose of 1.125 µmol (75 µL, 15 mM) of INV-001 and Gd-DOTA. Through sequential MRI imaging, dynamic patterns of SNR and CNR and peak time points in the popliteal lymph node and lymphatic vessels were obtained (FIG. 4a). […] In the 1.125 µmol INV-001 group, peak enhancement appeared between 16 and 32 minutes during extended visualization (SNRLN: 23.49 ± 8.64; SNRLV: 16.05 ± 3.52; CNRLN: 15.87 ± 11.05; CNRLV: 12.58 ± 3.37) (FIG. 4b).
Following injection of the contrast agents into the hind limb, magnetic resonance lymphangiography (MRL) was performed using 3D TOF under saturation band conditions to distinguish lymphatic vessels. […] In contrast, in all INV-001 groups, the popliteal lymph node and lymphatic vessels were clearly visualized without venous contamination (FIGs. 5e, 5f, and 5g, yellow arrows). Methylene blue was injected two days after MRL to verify the anatomical structures (FIGs. 5d and 5h).
Qualitative image analyses under various injection conditions were performed using Gd-DOTA and INV-001. In all groups, MRL provided good visualization of the popliteal lymph node and lymphatic vessels (FIG. 6). The qualitative image analysis was conducted according to the criteria shown in Table 1 (Criteria for qualitative score).

lymphatic vessels = assay: MRL after intradermal injection, Example 2; format: in vivo, rats; settings: lower limb, checked with methylene blue
Protocol: INV-001 was administered intradermally into the interdigital space of the lower limb of animals using a 31-gauge syringe. The injection volume was set at 10, 20, 30, 40, 50, or 75 microliters per animal, corresponding to a human equivalent dose of 2, 4, 6, 8, 10, or 15 mL, respectively.
Prior to MRI acquisition, the animals were anesthetized by inhalation of isoflurane delivered in oxygen at a concentration of 0.5-2%. If necessary, local anesthesia with lidocaine was applied to relieve procedural discomfort.
Baseline MRI images were acquired prior to the administration of the contrast agent. Following the injection of INV-001 prepared in Example 2-1, MRI scans were conducted every 16 minutes for a total of 96 minutes. The imaging sequence used was 3D Time-of-Flight Gradient Echo (3D TOF GRE), with images obtained in axial, sagittal, and coronal planes. […]
Maximum intensity projection (MIP) images were generated from the baseline and post-injection MRI data acquired at 16-minute intervals for 96 minutes. […] The overall image quality, including vessel discontinuity, was assessed using a four-point scale (-, +, ++, +++). Additionally, the presence of dermal backflow and lymph node congestion was evaluated. […]
To confirm the clearance of the injected contrast agent, the administration site was evaluated 24 hours after intradermal injection.

knee joint cavity = assay: Magnetic resonance arthrography after intra-articular injection in rats; format: in vivo, Male Sprague-Dawley rats
Protocol: Male Sprague-Dawley rats aged 7 weeks or older were anesthetized using a mixture of oxygen and isoflurane gas. INV-002 synthesized in Example 4-1 was then administered into the knee joint, and T1-weighted MRI images were acquired using a fast spin echo sequence.
For example, the T1 signal intensity of the synovial fluid increased from 4,900 (before injection) to 21,000 (after injection). Subsequently, the contrast-to-noise ratios (CNRs) of various anatomical regions within the joint cavity- including the meniscus, joint capsule, cruciate ligament, bone, and fat - were analyzed (FIG. 22F). The CNR was calculated as the difference in average signal intensity between the synovial fluid and each anatomical structure, divided by the standard deviation of the background signal. After INV-002 injection, the CNRs for the meniscus, capsule, cruciate ligament, bone, and fat regions increased by 10-fold, 8.5-fold, 18-fold, 14-fold, 12-fold, […], respectively, compared to pre-injection levels.
The contrast effect of INV-002 was not only stronger than that of the gadolinium-based contrast agent (e.g., Dotarem) but also lasted longer. For quantitative analysis of contrast enhancement, the signal-to-noise ratio (SNR) was measured at two intra-articular locations (indicated by orange arrows), and the average SNR was plotted over time. […]

[4] = 1.125 µmol (75 µL, 15 mM), at peak enhancement

CNC[C@H](O)[C@@H](O)[C@H](O)[C@H](O)CO.O=C([O-])CN1CCN(CC(=O)[O-])CCN(CC(=O)O)CCN(CC(=O)[O-])CC1.[Gd+3] [Gd-DOTA]
T1 contrast enhancement in phantom studies [1]: ~3.7 mM⁻¹ s⁻¹
r1 [2]: 4.7 mM⁻¹ s⁻¹
qualitative score [3]: 3.2
venous contamination ([3]; 1.125 µmol (75 µL, 15 mM), hind limb): venous contamination was observed
CNRLN [3, 4]: 21.61 ± 10.04
CNRLV [3, 4]: 7.89 ± 5.15
SNRLV [3, 4]: 11.15 ± 5.83
SNRLN ([3]; 1.125 µmol (75 µL, 15 mM), at peak enhancement (Gd-DOTA 16 min, INV-001 16-32 min)): 26.96 ± 10.78
qualitative score ([3]; 2.25 µmol (75 µL, 30 mM)): 3.8
venous contamination ([3]; 2.25 µmol (75 µL, 30 mM), hind limb): venous contamination was observed
venous contamination ([3]; doses of 0.45 µmol or higher (discussion)): venous contamination in most animals
time of peak enhancement post-injection ([3]; popliteal lymph node and lymphatic vessels, scans every 16 min): 16 min
enhancement of lymphatic vessels versus veins (venous contamination) (lymphatic vessels): preferentially enhanced veins more than lymphatic vessels
time of peak SNR post-injection (knee joint cavity; average of two intra-articular locations): 0.25 h
SNR dropped to baseline within (knee joint cavity; post-injection): ≤ 0.5 h

Reference: patent EP4663207A1, “LYMPHATIC VESSEL CONTRAST AGENT WITHOUT VENOUS CONTAMINATION” (Inventera Inc., priority 2023, dated 2024)
